Measured values as given in a melting point compilation (Tetko et al.; mined from patent text by program, amines drawn as free bases though some values may be those of a salt).

Compound	melting point [°C]
Nc1ncccc1OCc1ccccc1F	85 to 86
COC(=O)CCCNC(=O)c1cc(O)ccc1O	155 to 159
CC(=O)Nc1ccc(OC(F)F)c(F)c1	112 to 113
CN(C)C(=O)Nc1cccc(-c2nc(=O)c3ccccc3s2)n1	230
CC(=O)N(C)N(C(=O)OC(C)(C)C)c1ccc(CC#N)cc1	74 to 75
COc1ccc2cc(C3=CCC4(CC3)CCN(C)CC4)ccc2c1	147 to 150
CC(C)(C)OC(=O)n1c([Si](C)(C)C)cc2cnccc21	112
Nc1cccc(OCCN2CCc3ccccc3C2)c1N	76 to 77
Clc1nc(Cl)nc(N2CCc3ccccc32)n1	254 to 256
N#Cc1cc(N)ccc1N1CCC(CCO)CC1	60 to 63
[O-][N+](O)=Cc1ccc(Cl)cc1	151 to 153
O=NN1CCN(c2ccc(Cl)cc2)C1=O	154 to 156
CCOC(=O)COc1cc(-n2c(=O)cc(C(F)(F)F)n(C)c2=O)c(F)cc1Cl	98 to 101
O=C(C1CCCCC1)C1CCN(S(=O)(=O)c2ccccc2)CC1	141 to 143
COC(=O)CS(=O)(=O)c1ccccc1C(=O)OC	102 to 103
CNCCc1ccc2[nH]nc(S(=O)(=O)c3ccccc3)c2c1	42
C#CCOc1ccc(NCc2ccccc2)c(C(=O)c2ccc(C3CC3)cc2)c1	116 to 118
Cc1oc(-c2ccco2)nc1COc1ccc(COc2nn(Cc3ccccc3)cc2C(=O)O)cn1	151 to 152
CCOC(=O)C1CCc2cc([N+](=O)[O-])ccc2O1 (configuration not stated)	80.8
CSC1=NC(C)(C)CN1C(=O)Nc1c(C)cccc1C	178 to 179
NC(=O)c1ccc(CCN2CCC(=C3c4ccsc4CCn4ccnc43)CC2)cc1	196
Cn1ncc(CN2C(=O)c3ccccc3C2=O)c1-c1ccc(Cl)cc1C(=O)c1ccccc1F	153 to 155
CC(=O)NN=C1CC2(CCN(C)CC2)OC1C (configuration not stated)	164 to 167

Compound	melting point [°C]
CC(=O)n1c(=O)n(CCCN2CCN(C(c3ccccc3)c3ccccc3)CC2)c2ccccc21	124
FC(F)(F)c1cccc(C(CC2=NCCN2)c2ccc3ccccc3n2)c1 (configuration not stated)	92 to 93
COC(=O)c1cc([N+](=O)[O-])ccc1-c1ccc([N+](=O)[O-])cc1C(=O)OC	176 to 177
O=[N+]([O-])C1(CNC(CO)(CO)CO)CCCCC1	110 to 113
CC(C)(C)c1cc(C(=O)c2ccccc2)cc(CN2CCC(O)CC2)c1O	156 to 157
C[C@H]1C[C@@](O)(c2cnc(Cl)s2)CCO1	40 to 42
CC(CC(C(=O)N(C)C)(c1ccccc1)c1ccccc1)N1CCC(NC(=O)c2ccccc2O)C(O)C1 (configuration not stated)	154
COc1cc(C2OCCO2)cc(I)c1O	120 to 121
CCN1CCC(=O)N(c2c(C)cccc2C)C1=S	124 to 126
Nc1ccccc1CN(N)c1ccc(Cl)cc1	83 to 87
COC(=O)C1=C(C)NC(C)=C(C(=O)OCCN2CCN(C(c3ccc(F)cc3)c3ccc(F)cc3)CC2)C1c1ccccc1[N+](=O)[O-] (configuration not stated)	90 to 93
Cc1c(C(=O)Nc2ccc(OCC(C)C)c(C#N)c2)cnn1C	160 to 162
Cc1cccc(-c2cc(F)c3c(c2)CC(CN)O3)c1 (configuration not stated)	> 250
OCCNN=C(Cc1ccncc1)c1ccc(F)cc1	122 to 123
Cc1cc(C(=O)O)ccc1C1=CC(C)(C)CC(C)(C)C1	118 to 120
O=C(OCc1ccncc1)c1ccc2[nH]c(=O)n(Cc3ccc4c(c3)OCO4)c(=O)c2c1	204
COc1ccccc1NC(=O)Nc1nc(Oc2ccc3ccccc3c2)nc(N(CCC(=O)O)Cc2ccc(F)cc2)n1	211 to 217
CN(C)C=Cc1ccc([N+](=O)[O-])c(OCc2ccccc2)c1	111 to 114
O=C(O)Cc1c(C(=O)c2cccc(F)c2)[nH]c2cc(Cl)ccc12	278 to 281
OC(c1ccccc1)c1nnnn1Cc1ccccc1 (configuration not stated)	81
FC(F)(F)c1ccc(CC[C@H]2CN(Cc3ccccc3)CCN2Cc2ccccc2)cc1	71 to 75
N#Cc1c(O)[nH]c2cccnc12	> 250
CCCCCCCCCCCCOP(=O)(CC(=O)Nc1c(C(C)C)cccc1C(C)C)c1ccccc1 (configuration not stated)	66 to 68

Second part, the molecule after the results:

melting point [°C]	Compound
168 to 170	O=C(O)C1=Cc2cc(I)ccc2OC1C(F)(F)F (configuration not stated)
80 to 82	Cc1ccsc1-c1nc(-c2c(F)cccc2Cl)nn1C
61 to 67	CSCC[C@H](NC(=O)[C@H](CC(C)C)NC(=O)OCc1ccccc1)C(=O)CSC
173	O=C1CCC(c2ccccc2)(c2ccccc2)[C@@H]2CN(C(=O)Cc3ccccc3)C[C@H]12 (racemic)
80 to 82	C=CCN1CCNC(=O)c2cccc([N+](=O)[O-])c21
187 to 189	O=C(Nc1ccc(-n2nc(C(F)(F)F)cc2C(F)(F)F)cc1)c1c(F)ccc([N+](=O)[O-])c1F
282 to 283	N=c1[nH]c2ccc(Cl)cc2c2nc(-c3ccc(Br)o3)nn12
106 to 107	CC(=Nc1ccc(NC(=O)[C@@H](N)CC(C)C)cc1)N(C)C
165 to 170	O=Cc1cc(-c2ccccc2)c2ccc3c(-c4ccccc4)cc(C=O)nc3c2n1
143 to 145	CN1c2ccccc2N(C(=O)CNC(C)(C)C)c2ccccc2S1(=O)=O
158 to 160	COC(=O)C=C(Nc1coc2ccc(Cl)cc2c1=O)C(=O)OC
125 to 128	Cc1oncc1C(=O)Nc1ccc(-n2nc(C(F)(F)F)cc2C2CC2)c(F)c1
97.5 to 98.5	O=S(=O)(c1nc(-c2ccccc2)c(-c2ccccc2)n1COCc1ccccc1)C(F)(F)C(F)F
263 to 264	O=C(C=Cc1ccccc1)NNC(=O)c1ccc(O)cc1
220	Cc1ccc2[nH]c3c(c2c1)CC(C)n1c-3nc2c(c1=O)CCCC2 (configuration not stated)
145	CN(C)c1ccc(C2(c3ccc(N(C)C)cc3)Oc3ccccc3-c3[nH]c4ccccc4c32)cc1
173 to 174	CCOC(=O)c1cc2cccc(NS(=O)(=O)c3ccsc3C(=O)OC)c2[nH]1
138 to 142	O=C(NCCCCCCOC(=O)N1CCC(OC(=O)NC2CCCCC2)CC1)Oc1ccc(Oc2ccccc2)cc1
147 to 150	COc1c(C)c(C)c(OC)c([N+](=O)[O-])c1[N+](=O)[O-]
164 to 166	COc1cc2sc(-c3cccnc3)nc2cc1N=C=S
158	O=C(c1ccc(Cl)c(Cl)c1)N1C(=O)N2CCCC2(Cc2ccc(Br)cc2)C1=O (configuration not stated)
209 to 213	COc1cc2c(Nc3ccc(Cl)cc3F)ncnc2cc1OCc1ccnc(C#N)c1
221 to 223	COC(=O)Cn1c(C(=O)O)cc2cc(C)cc(C)c21
189 to 191	O=C(CCCCc1ccccc1)Nc1ccc(C(=O)NO)cc1
236 to 240	Fc1cccc(COc2ccc(Nc3ncnc4cc(C#Cc5ncccn5)sc34)cc2Cl)c1
165 to 167	CCCN(c1ccncc1)n1cc(C)c2cc(OCc3ccccc3)ccc21
